Data published in patent publication US10993947B2, “Treatment of skin lesions” (PIQUR THERAPEUTICS AG, priority 2016, dated 2021).
Marks after values point to notes of the source that are not given here.

Assays:
[1] = system: pPKB S473 in A2058 cells; assay: In-cell Western blot, pPKB S473; format: cell-based; settings: Homo sapiens, 1 hour treatment
Method: (§1) Cells are fixed with 4% paraformaldehyde for 30 minutes at room temperature, washed 2 times with 1% BSA in PBS, permeabilized with 0.1% Triton X-100 in PBS/1% BSA for 30 minutes at room temperature and blocked with 5% goat serum in PBS/1% BSA/0.1% Triton X-100 for 30 minutes at room temperature. […] Cells are washed 3 times 5 minutes with PBS/1% BSA/0.1% triton and plate scanned with the Odyssey Infrared Scanning system using both 700 and 800 nm channels. […] To correct for background staining in the data analysis wells are treated only with secondary antibodies.
(§2) For data analysis the mean background signal from channel 700 nm and 800 nm are subtracted from each signal in channel 700 nm and 800 nm, respectively.
(§3) IC50 values of each compound are determined by plotting the normalized pPBK S473 and pS6 S235/S236 signals, respectively, versus the compound concentrations (in logarithmic scale) and then by fitting a sigmoidal dose-response curve with variable slope to the data using GraphPad™ Prism.

[2] = system: pig skin (lower epidermis and dermis); assay: Ex vivo pig skin penetration, first study (80% SBECD formulations); format: in vitro ADME
From the text: FIG. 3: PK profiles of nine formulations comprising the inventive compounds and control have been assessed. The control formulation Aldara (5% imiquimod) was applied to detect variations in skin permeability (local variability in the same animal and inter-subject variability). The stratum corneum was removed by tape stripping to avoid contamination during the biopsy extraction. […] One biopsy was taken from each control site. Additionally, 5 blank samples were taken.
Ex vivo and in vivo models to assess the penetration of various drug substances including the inventive compounds in the skin of pigs have been established. This model allows to assess the PK profile of several drug candidates including the inventive compounds in one subject, thereby enhancing comparability and avoiding inter-subject variability.
In the first study (FIG. 3, Table 15) the PK profiles of nine test formulations have been assessed using 80% SBECD either at pH3 or pH 7.

[3] = system: excised pig skin; settings: 1 %
From the text: Excised pig skin was placed in a climate chamber to control temperature and humidity. […] Before biopsies were taken the stratum corneum was removed by tape stripping and biopsies consisted of the remaining epidermis and entire dermis.

[4] = target: T1, N-terminally GST-tagged mTOR (Homo sapiens, UniProt P42345); assay: In vitro mTOR binding assay (LanthaScreen TR-FRET); settings: LanthaScreen kinase binding, Tracer 314; read-out: mTOR IC50 (binding)
T1 construct: truncated version: amino acids 1360-2549; purchased Life Technologies PR8683B
Method: A 10-point 4-fold serial dilution (highest concentration at 10 μmol/L and lowest concentration at 40 μmol/L) of each compound was tested for mTOR binding in duplicate in a 384-well plate. […] After 30 min incubation at RT, time-resolved FRET was measured with a Synergy 4 multi-mode microplate reader (Biotek Instruments) using the following settings: 100 microsecs delay before data collection, 200 microsecs time for data collection, 10 measurements per data point.
IC50 values of each compound were determined by plotting the emission ratio versus the compound concentrations (in logarithmic scale) and then by fitting a sigmoidal dose-response curve with variable slope to the data using GraphPad™ Prism.

[5] = system: pS6 S235/S236 in A2058 cells; assay: In-cell Western blot, pS6 S235/S236; format: cell-based; settings: Homo sapiens, 1 hour treatment
Method: as §1, §2, §3

T1 sequence (P42345 1360-2549): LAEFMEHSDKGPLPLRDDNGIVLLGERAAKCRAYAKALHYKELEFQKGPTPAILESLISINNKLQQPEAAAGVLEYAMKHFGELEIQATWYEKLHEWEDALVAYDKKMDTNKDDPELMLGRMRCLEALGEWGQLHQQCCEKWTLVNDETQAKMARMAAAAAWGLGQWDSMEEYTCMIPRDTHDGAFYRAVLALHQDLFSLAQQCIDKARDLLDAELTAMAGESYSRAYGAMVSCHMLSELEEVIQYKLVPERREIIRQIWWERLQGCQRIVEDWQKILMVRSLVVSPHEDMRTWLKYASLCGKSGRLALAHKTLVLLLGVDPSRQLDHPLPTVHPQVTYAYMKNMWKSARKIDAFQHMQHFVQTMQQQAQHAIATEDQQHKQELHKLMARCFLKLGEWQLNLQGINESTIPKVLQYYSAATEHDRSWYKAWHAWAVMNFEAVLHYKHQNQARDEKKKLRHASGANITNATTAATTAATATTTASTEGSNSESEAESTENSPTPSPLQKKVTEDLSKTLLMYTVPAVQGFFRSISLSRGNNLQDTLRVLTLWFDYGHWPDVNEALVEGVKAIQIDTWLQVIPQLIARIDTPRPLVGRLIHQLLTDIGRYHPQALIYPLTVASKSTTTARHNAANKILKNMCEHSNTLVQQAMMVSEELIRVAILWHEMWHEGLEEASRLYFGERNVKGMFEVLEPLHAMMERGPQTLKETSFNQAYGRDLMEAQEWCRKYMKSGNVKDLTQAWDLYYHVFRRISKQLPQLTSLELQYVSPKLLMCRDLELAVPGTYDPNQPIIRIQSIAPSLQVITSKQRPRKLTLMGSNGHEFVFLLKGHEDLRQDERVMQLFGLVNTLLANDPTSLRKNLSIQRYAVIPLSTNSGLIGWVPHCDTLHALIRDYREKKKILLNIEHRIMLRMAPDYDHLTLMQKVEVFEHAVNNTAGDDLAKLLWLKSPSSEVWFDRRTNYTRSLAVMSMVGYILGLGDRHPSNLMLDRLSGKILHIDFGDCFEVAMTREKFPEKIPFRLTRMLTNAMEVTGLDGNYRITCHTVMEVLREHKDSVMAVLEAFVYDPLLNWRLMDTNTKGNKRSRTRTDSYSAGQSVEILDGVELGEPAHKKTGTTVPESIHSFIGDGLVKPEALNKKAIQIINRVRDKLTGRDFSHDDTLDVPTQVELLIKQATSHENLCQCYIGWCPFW

| Compound | IC50 ([1]; A2058, 1 h) [nM] | penetration into pig skin ([2]; 1% experimental formulations, 80% SBECD, ex vivo) | intrinsic penetration properties compared with imiquimod (Aldara 5% cream) ([2]; ex vivo pig skin, estimated) | skin concentration / skin PK profile [3] | IC50 [4] [nM] | IC50 ([5]; A2058, 1 h) [nM] | IC50 [1] [nM] | IC50 [5] [nM] |
| --- | --- | --- | --- | --- | --- | --- | --- | --- |
| Nc1cc(C(F)F)c(-c2nc(N3C4CCC3COC4)nc(N3C4CCC3COC4)n2)cn1 [Compound 3, 5-(4-(3-oxa-8-azabicyclo[3.2.1]octan-8-yl)-6-(3-oxa-8-azabicyclo[3.2.1]octan-8-yl)-1,3,5-triazin-2-yl)-4-(difluoromethyl)pyridin-2-amine] | 231 | penetrated into pig skin (lower epidermis and dermis) to a significant extent | slightly lower | comparable to Cpd1* | 8 | 105 | – | – |
| C[C@@H]1COCCN1c1nc(-c2cnc(N)cc2C(F)F)nc(N2CCOCC23CCC3)n1 [Compound 88, 4-(difluoromethyl)-5-[4-[(3R)-3-methylmorpholin-4-yl]-6-(8-oxa-5-azaspiro[3.5]nonan-5-yl)-1,3,5-triazin-2-yl]pyridin-2-amine] | 271 | – | – | – | 18 | 192 | – | – |
| Nc1ncc(-c2nc(N3CCOCC3)nc(N3CCSCC3)n2)c(C(F)F)n1 [Compound 21] | 57 | – | – | – | 54 | 216 | – | – |
| Nc1cc(C(F)F)c(-c2nc(N3CCOCC3)cc(N3CCOCC3)n2)cn1 [Compound 18, 4-(difluoromethyl)-5-(4,6-dimorpholinopyrimidin-2-yl)pyridin-2-amine] | – | – | – | – | 31 | – | 243 | 256 |
| C[C@@H]1COCCN1c1nc(-c2cnc(N)cc2C(F)F)nc(N2CCOC[C@H]2C)n1 [Compound 41, 5-[4,6-bis[(3R)-3-methylmorpholin-4-yl]-1,3,5-triazin-2-yl]-4-(difluoromethyl)pyridin-2-amine] | – | – | – | – | 22 | – | 436 | 261 |
| Nc1ncc(-c2cc(N3CCOCC3)nc(N3CCOCC3)n2)c(C(F)(F)F)n1 [reference compound] | 194 | – | – | – | 644 | 384 | – | – |
| C[C@H]1COCCN1c1cc(-c2cnc(N)cc2C(F)F)nc(N2CCOCC2)n1 [Compound 27, (S)-4-(difluoromethyl)-5-(6-(3-methylmorpholino)-2-morpholinopyrimidin-4-yl)pyridin-2-amine] | – | – | – | – | 65 | – | 614 | 766 |
